Our source for the IC50 values is patent US20240409585A1, “MACROCYCLIC IMMUNOMODULATORS” (priority 2021, published 2024).

SMILES strings stand for the structures. Numbered stars: 1 amine (or outer) side, 2 acyl side, 3 side chain; on linkers, the order of the positions; unused ones are H or OH. Bridge positions count the residues as written; N and C are the ends. Square brackets hold non-standard residues; d marks the D form. Peptide text beside a SMILES is read from it. * marks the point of attachment. ξ: configuration not given here. X22 = NC(=O)c1cccc(-c2ccc(C[C@H](N[*:1])C(=O)[*:2])cc2)c1; Phe(4-COOH) = N[C@@H](Cc1ccc(C(=O)O)cc1)C(=O)O; Bip = N[C@@H](Cc1ccc(-c2ccccc2)cc1)C(=O)O; Cha = N[C@@H](CC1CCCCC1)C(=O)O; Ile(3ξ) = CCC(C)[C@H](N)C(=O)O; Thr(3ξ) = CC(O)[C@H](N)C(=O)O; Carboxymethyl = O=C(O)C*; NMeA = CN[C@@H](C)C(=O)O; Orn = NCCC[C@H](N)C(=O)O; Dab = NCC[C@H](N)C(=O)O; Allyl = C=CC*

For this assay, the target named is T1, PE-labeled human PD-L1-Ig binding to Jurkat cell line over-expressing human PD-1 (Jurkat-PD-1) (Homo sapiens, UniProt Q15116).
T1 construct: expressed in transfected cells; host or cells: Jurkat
T1 sequence (Q15116 25-288): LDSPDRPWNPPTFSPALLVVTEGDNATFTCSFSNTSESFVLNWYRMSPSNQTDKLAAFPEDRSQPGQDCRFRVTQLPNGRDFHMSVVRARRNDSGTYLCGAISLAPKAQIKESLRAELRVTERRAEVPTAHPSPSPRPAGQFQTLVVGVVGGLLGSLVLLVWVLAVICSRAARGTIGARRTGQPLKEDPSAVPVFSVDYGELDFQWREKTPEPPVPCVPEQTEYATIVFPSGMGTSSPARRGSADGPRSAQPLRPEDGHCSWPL
Put plainly: Jurkat-PD-1 Cell Binding High-Content Screening Assay (CBA): Method 1. As to conditions: Jurkat-hPD-1 cells, PE-labeled PD-L1-Ig 20 nM final; read-out: Jurkat HPDL1 PD1 IC50 (uM) (Method 1).
With `CC(C)C[C@@H]1NC(=O)[C@H](CCN)NC(=O)[C@@H](CC(C)C)NC(=O)[C@H](C)N(C)C(=O)[C@H](CCCNC(=N)N)NC(=O)[C@H](Cc2ccc(-c3ccccc3)cc2)NC(=O)[C@H](C(C)C)NC(=O)[C@H](Cc2c[nH]c3ccccc23)NC(=O)[C@H](CC(=O)O)NC(=O)[C@H](Cc2ccc(O)cc2)NC(=O)[C@H](CCCN)NC(=O)CSC[C@@H](C(=O)N[C@@H](C)C(N)=O)NC(=O)[C@H]([C@@H](C)O)NC(=O)[C@H](C(C)C)NC1=O` [Compound 1341] ({CH2CO}-[Orn]YDWV[Bip]R[NMeA][dL][Dab]LVTCA-NH2; thioether N-14), the 50% inhibitory concentration (IC50) amounted to 0.05 µM.
As for `CC(C)C[C@@H]1NC(=O)[C@H](CCN)NC(=O)[C@@H](CC(C)C)NC(=O)[C@H](C)N(C)C(=O)[C@H](CCCNC(=N)N)NC(=O)[C@H](Cc2ccc(-c3cccc(C(N)=O)c3)cc2)NC(=O)[C@H](C(C)C)NC(=O)[C@H](Cc2c[nH]c3ccccc23)NC(=O)[C@H](CC(=O)O)NC(=O)[C@H](Cc2ccc(O)cc2)NC(=O)[C@H](CC(N)=O)NC(=O)CSC[C@@H](C(=O)N[C@@H](C)C(N)=O)NC(=O)[C@H]([C@@H](C)O)NC(=O)[C@H](C(C)C)NC1=O` [Compound 1225] ({CH2CO}-NYDWV[X22]R[NMeA][dL][Dab]LVTCA-NH2; thioether N-14), the figure is 0.29 µM; as for `CCC(C)[C@@H]1NC(=O)[C@H](Cc2ccc(-c3ccccc3)cc2)NC(=O)[C@H](C(C)C)NC(=O)[C@H](Cc2c[nH]c3ccccc23)NC(=O)[C@H](CC(=O)O)NC(=O)[C@H](Cc2ccc(O)cc2)NC(=O)[C@H](CC(N)=O)NC(=O)CSC[C@@H](C(=O)N[C@@H](C)C(N)=O)NC(=O)[C@H](C(C)O)NC(=O)[C@H](C(C)C)NC(=O)[C@H](CC2CCCCC2)NC(=O)[C@H](CCN)NC(=O)[C@@H](CC(C)C)NC(=O)[C@H](C)N(C)C1=O` (stereo partly drawn) [Compound 2061] ({CH2CO}-NYDWV[Bip][Ile(3ξ)][NMeA][dL][Dab][Cha]V[Thr(3ξ)]CA-NH2; thioether N-14), 0.01 µM.
As for `CC(C)C[C@@H]1NC(=O)[C@H](CCN)NC(=O)[C@@H](CC(C)C)NC(=O)[C@H](C)N(C)C(=O)[C@H](CCCNC(=N)N)NC(=O)[C@H](Cc2ccc(-c3ccccc3)cc2)NC(=O)[C@H](C(C)C)NC(=O)[C@H](Cc2c[nH]c3ccccc23)NC(=O)[C@H](CC(=O)O)NC(=O)[C@H](Cc2ccc(O)cc2)NC(=O)[C@H](CC(N)=O)NC(=O)CSC[C@@H](C(=O)NCC(N)=O)NC(=O)[C@H](CO)NC(=O)[C@H](C(C)C)NC1=O` [Compound 1247] ({CH2CO}-NYDWV[Bip]R[NMeA][dL][Dab]LVSCG-NH2; thioether N-14), the figure is 0.06 µM; as for `CCC(C)[C@@H]1NC(=O)[C@H](Cc2ccc(-c3ccccc3)cc2)NC(=O)[C@H](CC(C)C)NC(=O)[C@H](Cc2c[nH]c3ccccc23)NC(=O)[C@H](CC(=O)O)NC(=O)[C@H](Cc2ccc(C(=O)O)cc2)NC(=O)[C@H](Cc2ccc(OCC(=O)O)cc2)NC(=O)CSC[C@@H](C(=O)N[C@@H](CC(N)=O)C(N)=O)NC(=O)[C@H]([C@@H](C)O)NC(=O)[C@H](C(C)C)NC(=O)[C@H](CC2CCCCC2)NC(=O)[C@H](CCN)NC(=O)[C@@H](CC(C)C)NC(=O)[C@H](C)N(C)C1=O` (stereo partly drawn) [Compound 1922] ({CH2CO}-Y(Carboxymethyl)[Phe(4-COOH)]DWL[Bip][Ile(3ξ)][NMeA][dL][Dab][Cha]VTCN-NH2; thioether N-14), 0.04 µM; as for `C=CCOc1ccc(C[C@@H]2NC(=O)[C@H](Cc3ccccc3)NC(=O)CSC[C@@H](C(=O)N[C@@H](C)C(N)=O)NC(=O)[C@H]([C@@H](C)O)NC(=O)[C@H](C(C)C)NC(=O)[C@H](CC(C)C)NC(=O)[C@H](CCCNC(=N)N)NC(=O)[C@@H](CC(C)C)NC(=O)[C@H](C)N(C)C(=O)[C@H](CCCNC(=N)N)NC(=O)[C@H](Cc3ccc(-c4ccccc4)cc3)NC(=O)[C@H](C(C)C)NC(=O)[C@H](Cc3c[nH]c4ccccc34)NC(=O)[C@H](CC(=O)O)NC2=O)cc1` [Compound 1088] ({CH2CO}-FY(Allyl)DWV[Bip]R[NMeA][dL]RLVTCA-NH2; thioether N-14), 0.41 µM.

One may read the IC50 as the concentration that gives 50% inhibition.
